These are literature values, as cited in patent US8691571B1, “Extending tissue preservation” (University of South Florida, priority 1998, dated 2014).

This data set deals with rabbit cornea. To be noted: addition to storage medium; without changing metabolic activity for at least 11 days.

`CC(O)CC(=O)O` (stereo not drawn) [beta-hydroxy butyrate]: the “diminished lactic acid concentration of rabbit cornea” value is 85%.
